Earlier results on two compounds are cited in patent US5897876A, “Emulsified drug delivery system” (Shire Laboratories Inc., priority 1997, dated 1999).

The test system of the series is peptide transport. Conditions: in other vehicles; "known".

Molecules are shown by their SMILES.

As for `CCCCC/C=C\C/C=C\CCCCCCCC(=O)O` [linoleic acid], the promote peptide transport entry is given as “known to promote peptide transport in other vehicles”.

With `CCCCCCCC/C=C\CCCCCCCC(=O)O` [oleic acid], the promote peptide transport result is “known to promote peptide transport in other vehicles”.
